Measured values: patent US20120003661A1, “METHODS AND DEVICES FOR THE SELECTIVE DETECTION OF MICROORGANISMS” (C3 JIAN, INC., priority 2010, published 2012)
“Also recorded” adds a separate entry of the source. Where two headings read alike, the source gives them in different places.

Tested on: bacteria, fungi, and/or yeasts
Assay type: binding
[1] = microorganism(s) listed as target(s) of the targeting peptide, wrapped target lists given cell by cell
[2] = microorganism(s) the targeting peptide binds, as listed in Table 2
[3] = microorganism(s) that the targeting peptide binds, as listed in Table 2

Substance | Target(s) [1] | Target(s) [2] | further results
PF-022 (MINELKNKNSGIMNNYVVTKESKL) | M. luteus, P. mirabilis, E. coli, P. aeruginosa,; also recorded: C. albicans, MRSA,; also recorded: S. pneumoniae, E. faecalis, C. jeikeium,; also recorded: C. jejuni |  | 
1T-177 (GTNVPTQILGYSREERFDYEPAPEQR) |  | P. gingivalis, S. gordonii, S. mitis,; also recorded: S. mutans, S. oralis, S. salivarious,; also recorded: S. sanguinis | 
PF-053 (KLFGQWGPELGSIYILPALIGSIILIAIVTLILRAMRK) | S. epidermidis, M. luteus, E. coli,; also recorded: P. aeruginosa, C. albicans,; also recorded: MRSA, S. pneumoniae, E. faecalis |  | 
PF-C003 (FCSVDHDVITIAADHVKQGAEA) |  |  | Target(s) [3]: A. naeslundii, P. gingivalis, S. mutans
Rv1535 (DPLVDGAARLLSIPLRHLYAALWRVGLLEVQA) | C. albicans |  | 
PF-134 (GKAMKRQDCSAL) | S. epidermidis, C. jeikeium |  | 
1T-112 (SDNDGKLILGTSQ) |  | S. gordonii | 
PF-172 (LTGVRRPWRAPWAGTSGWALR) | S. epidermidis, M. luteus, E. coli,; also recorded: P. aeruginosa, MRSA, E. faecalis,; also recorded: C. jejuni |  | 
1T-117 (GPGVVGPAPFSRLPAHALNL) |  | S. mutans | 
1T-85 (VMASLTWRMRAASASLPTHSRTDA) |  | A. naeslundii, F. nucleatum, P. gingivalis,; also recorded: S. epidermidis, S. gordonii,; also recorded: S. mitis, S. mutans, S. oralis,; also recorded: S. salivarious, S. sanguinis | 
1T-33 (VRTLTILVIFIFNYLKSISYKLKQPFENNLAQSMISI) |  | S. aureus, S. epidermidis, C. jeikeium,; also recorded: C. xerosis, C. striatum,; also recorded: P. aeruginosa | 
1T-291 (DMKIIKLYIKILSFLFIKYCNKKLNSVKLKA) | A. naeslundii, F. nucleatum, P. gingivalis,; also recorded: T. denticola, S. mitis,; also recorded: S. mutans, S. oralis |  | 
1T-164 (KKSHSQGKRKLKDLNSAYKIDNQLHYALR) |  | A. naeslundii, F. nucleatum, P. gingivalis,; also recorded: S. epidermidis, S. gordonii,; also recorded: S. mitis, S. mutans, S. oralis,; also recorded: S. salivarious, S. sanguinis | 
1T-75 (GVARGLQLGIKTRTQWGAATGAA) |  | S. pneumoniae | 
PF-057 (TMIVISIPRFEEYMKARHKKWM) | S. epidermidis, M. luteus, P. mirabilis,; also recorded: E. coli, P. aeruginosa,; also recorded: C. albicans, MRSA, S. pneumoniae,; also recorded: E. faecalis, C. jeikeium,; also recorded: C. jejuni |  | 
1T-226 (KLQEKQIDRNFERVSGYSTYRAVQAAKAKEKGFISLEN) |  | A. naeslundii, F. nucleatum, S. epidermidis,; also recorded: S. gordonii, S. mitis,; also recorded: S. mutans, S. oralis, S. salivarious,; also recorded: S. sanguinis | 
1T-28 (VSRDEAMEFIDREWTTLQPAGKSHA) |  | P. aeruginosa | 
1T-34 (AFWLNILLTLLGYIPGIVHAVYIIAKR) |  | S. aureus, S. epidermidis, C. jeikeium,; also recorded: C. xerosis, C. striatum,; also recorded: P. aeruginosa | 
PF-C136 (LILSYQASVYPLFAYLCQQKDY) |  |  | Target(s) [3]: A. naeslundii, F. nucleatum, P. gingivalis,; also recorded: S. mutans, T. denticola
1T-49 (SLVRIHDQQPWVTRGAFIDAARTCS) |  | S. aureus, S. epidermidis, C. jeikeium,; also recorded: P. aeruginosa | 
PF-785 (MRPQHSPAGKAFVVKKITHEQS) |  |  | Target(s) [3]: Mycobacteria spp.
1T-215 (VCFKDISVFLSPFRGQEVLFCGKAKHSLIYVIGT) |  | S. sanguinis | 
PF-044 (KLKKYIHKPD) | S. epidermidis, M. luteus, MRSA,; also recorded: C. jeikeium |  | 
PF-073 (CPSVTMDACALLQKFDFCNNISHFRHFFAIKQPIER) | S. epidermidis, M. luteus, P. aeruginosa,; also recorded: C. albicans, MRSA,; also recorded: S. pneumoniae, E. faecalis |  | 
1T-292 (IINQLNLILLRLMEILIL) | A. naeslundii, F. nucleatum, P. gingivalis,; also recorded: S. epidermidis, S. gordonii,; also recorded: S. mitis, S. mutans, S. oralis,; also recorded: S. salivarious, S. sanguinis |  | 

Substance | Target(s) [1] | Target(s) [2] | further results
1T-264 (LEGKFYMAEDFDKTPECFKDYV) | S. sanguinis |  | 
PF-C008 (AQPRRTWLVNFGEVPSPGLTNDGMPDH) |  |  | Target(s) [3]: A. naeslundii
1T-95 (GHLLRVGGRVGGVGGVAGACAQPFGGQ) |  | S. gordonii, S. mitis, S. mutans,; also recorded: S. oralis, S. sanguinis | 
PF-013 (LIQKGLNQTFIVVIRLNNFIKKS) | M. luteus, P. mirabilis, E. coli, P. aeruginosa,; also recorded: MRSA, S. pneumoniae,; also recorded: C. jeikeium, C. jejuni |  | 
PF-127 (MLRYLSLFAVGLATGYAWGWIDGLAASLAV) | S. epidermidis, M. luteus, E. coli,; also recorded: P. aeruginosa, C. albicans,; also recorded: MRSA, S. pneumoniae, E. faecalis |  | 
PF-792 (ALHASGIQAI) |  |  | Target(s) [3]: S. mutans
1T-6 (KFINGVLSQFVLERK) |  | S. mutans | 
PF-C058 (FETGFGDGYYMSLWGLNEKDEVCKVVIPFINPELID) |  |  | Target(s) [3]: A. naeslundii, F. nucleatum, P. gingivalis,; also recorded: S. mutans
PF-C061 (TLNYKKMFFSVIFLLGLNYLICNSPLFFKQIEF) |  |  | Target(s) [3]: A. naeslundii, F. nucleatum, P. gingivalis,; also recorded: S. mutans, T. denticola
PF-030 (MTCHQAPTTTHQSNMA) | yeast and hyphal forms; also recorded: S. epidermidis, M. luteus, P. mirabilis,; also recorded: E. coli, P. aeruginosa,; also recorded: C. albicans, MRSA, S. pneumoniae,; also recorded: E. faecalis, C. jeikeium,; also recorded: C. jejuni |  | 
1T-54 (RWVSCNPSWRIQ) |  | S. epidermidis, C. xerosis, C. striatum,; also recorded: P. aeruginosa | 
PF-163 (TSWLRAAERQEIGEPTKTFGEKTTSL) | S. epidermidis |  | 
PF-621 (PPSSFLV) | yeast and hyphal forms |  | 
TT-309 (EPLPLTKYDKKDTEMKKVFKEILAGKVGYEKEEE) | F. nucleatum |  | 
1T-158 (WENKPSPLGSIKKLQGLVYRLIGYRHFWV) |  | A. naeslundii, F. nucleatum, P. gingivalis,; also recorded: S. epidermidis, S. gordonii,; also recorded: S. mitis, S. mutans, S. oralis,; also recorded: S. salivarious, S. sanguinis | 
1T-216 (FFLNVIAIRIPHF) |  | S. sanguinis | 
PF-C088 (DIANNILNSVSERLIIA) |  |  | Target(s) [3]: A. naeslundii, F. nucleatum, P. gingivalis,; also recorded: S. mutans, T. denticola
PF-031 (MPHHSTTSSRIVVPAHQSNMASTPNLSITP) | M. luteus, C. albicans |  | 
1T-156 (GRFQISIRGEEKSKVKVQGKGTFTDRNTT) |  | A. naeslundii, F. nucleatum, P. gingivalis,; also recorded: T. denticola, S. gordonii,; also recorded: S. mitis, S. mutans, S. oralis,; also recorded: S. salivarious, S. sanguinis | 
1T-143 (MPKRHYYKLEAKALQFGLPFAYSPIQLLK) |  | A. naeslundii, F. nucleatum, P. gingivalis,; also recorded: S. epidermidis, S. gordonii,; also recorded: S. mitis, S. mutans, S. oralis,; also recorded: S. salivarious, S. sanguinis | 
1T-78 (FFKTIFVLILGALGVAAGLYIEKNYIDK) |  | S. pneumoniae | 
1T-152 (YVSADESAYNHIVTDDIPLADRRIEAVQQ) |  | A. naeslundii, F. nucleatum, P. gingivalis,; also recorded: S. epidermidis, S. gordonii,; also recorded: S. mitis, S. mutans, S. oralis,; also recorded: S. salivarious, S. sanguinis | 
1T-250 (LVQGDTILIENHVGTPVKDDGKDCLIIREADVLAVVND) | S. mitis, S. mutans, S. oralis |  | 
PF-142 (GIDRGCQAAR) | S. mutans |  | 
1T-167 (SRMSEHSPAGLVFEVGPMDKGSFIILDSYHPTVKK) |  | A. naeslundii, F. nucleatum, P. gingivalis,; also recorded: S. epidermidis, S. gordonii,; also recorded: S. mitis, S. mutans, S. oralis,; also recorded: S. salivarious, S. sanguinis | 
